# Measurements from patent US5576188A, “Immunological detection of metolachlor” (Ciba-Geigy Corporation, priority 1990, dated 1996).
# Experiments:
# [1] = target: MAb 4082-25-4; experiment: Indirect competitive ELISA (assay A), inhibition of MAb 4082-25-4 binding / cross-reactivity; design: species or system BALB/c mouse; conditions: for I50 (inhibitor concentration for 50% inhibition in the competitive ELISA): MAb 4082-25-4; for Cross-reactivity (metolachlor concentration for 50% inhibition / concentration of metolachlor analogue for 50% inhibition × 100): MAb 4082-25-4, relative to metolachlor
# Text: The percentage cross-reactivity is to be defined within the scope of this invention by the following relation:
# (Metolachlor concentration for 50% inhibition/concentration of the metolachlor analogues for 50% inhibition)×100.
# A 50% inhibition can be determined, for example, with the aid of a competitive ELISA assay (compare Example 8). This then corresponds, for example, to that antigen concentration which leads to 50% inhibition of antibody binding to the carrier-bound antigen.
# 8.1: Indirect ELISA (assay A)
# Metolachlor is detected by means of a two-stage competitive ELISA test using an enzyme-labelled second antibody.
# BSA-conjugated hapten in a 50 mM sodium carbonate buffer (pH 9.6) (200 ng of BSA-conjugated hapten/100 μl of sodium carbonate buffer) is initially adsorbed onto microtitre plates (for example Dynatech, type M 129A) and incubated at a temperature of 4° C. overnight. It has emerged that the sensitivity of the assay can be increased almost 5-fold by reducing the conjugate[BSA/hapten] concentration from 200 ng/100 μl of sodium carbonate buffer to 50 ng/100 μl of sodium carbonate buffer because the coating is improved.
# The plates are then washed 5× with PBS buffer which is supplemented with 0.1% (v/v) polysorbate 20 (Tween 20) (PBS-Tween).
# The remaining free binding sites on the solid support material are then blocked by adding BSA in the form of a 1% solution. After incubation at 22° C. for two hours the plates are again washed with PBS-Tween (0.1%).
# 50 μl of the previously purified monoclonal antibodies (0.2 μg/ml) or else of the supernatant of the cell clones (in a dilution of 1:15) are incubated a) with 950 μl of a standard solution which contains an increasing content of metolachlor or metolachlor analogue, b) with metolachlor-containing water samples or c) metolachlor-containing soil extracts. (PBS-Tween is used for all dilutions).
# After an incubation time of 1 hour at room temperature (22° C.), 200 μl of the antigen/antibody mixture are added to each well of the microtitre plate, and the entire mixture is incubated for a further hour. The wells are then washed 5× with PBS-Tween (0.1%) and charged with 100 μl/well of goat anti-mouse IgG antibody which is conjugated to alkaline phosphatase (dilution 1:1500) and incubated for a period of 1.5 hours.
# After renewed washing, 150 μl/well of the substrate p-nitrophenyl phosphate which is dissolved in 1 mg/ml diethanolamine buffer (1 mM, pH 9.8, supplemented with 0.5 mM MgCl2 ×6H2 O) are added to the wells.
# After an incubation time of 2 hours at a temperature of 22° C. it is possible to observe a colour change which is proportional to the amount of antibody which has reacted with the antigen bound to the solid phase. The intensity of the colour reaction which has occurred is determined at a wavelength of 405 nm. The dilutions of the individual samples are chosen so that absorptions in a range between 0.3 and 0.5 are obtained without addition of an inhibitor (Bo). Values of R≤0.005 are found for the controls (without antibody and with undetectable amounts of antigen). All the samples are determined in triplicate.
# (§1) For the determination of the amount of metolachlor contained in a sample, initially a calibration plot is constructed (FIG. 1), where B/Bo×100is plotted against the concentration of inhibitor. (Bo represents the absorbance measured without addition of a metolachlor inhibitor to the antibody, and B means the absorbance measured with various concentrations of metolachlor inhibitor). […] The I50 value is calculated using an ENZFITTER (Leatherbarrow, Elsevier-Biosoft) plot calculation program specifically adapted to the present circumstances and based on a logistic plot embracing 4 parameters (Raab GM, 1983). The quantitative determination of metolachlor in samples of soil or water within the scope of the ELISA is also carried out using the ENZFITTER program, with the fitting of the plot being based on standards included on each microtitre plate. […]
# [2] = system: MAb 4082-25-4; experiment: Direct competitive ELISA (assay B); type: binding, BALB/c mouse
# Experimental: 8.2: Direct ELISA (assay B)
# Microtitre plates [Dynatech M 129A] are coated with monoclonal antibodies [for example MAb 4082-25-4; 75 ng/100 μl of 50 mM sodium carbonate buffer, pH 9.6] and incubated at a temperature of 4° C. overnight. The plates are then washed 5 times with 0.1% (v/v) PBS-Tween and subsequently incubated with PBS supplemented with 1% (w/v) BSA for 2 hours in order to block the binding sites which are still free. After renewed washing, 150 μl of a standard solution are added to each of the wells of the microtitre plates which contain increasing amounts of metolachlor in 0.1% (v/v) PBS-Tween. This is followed by incubation at a temperature of 22° C. for 1 hour. […] After incubation at 22° C. in the dark for 2 hours, the absorption of 405 nm is determined.
# as §1, with “1983).” for “1983). The quantitative determination of metolachlor in samples of soil or water within the scope of the ELISA is also carried out using the ENZFITTER program, with the fitting of the plot being based on standards included on each microtitre plate.”
Compound,I50 (inhibitor concentration for 50% inhibition in the competitive ELISA) [1] [ng/mL],Cross-reactivity (metolachlor concentration for 50% inhibition / concentration of metolachlor analogue for 50% inhibition × 100) [1] [%],I50 [2] [ng/mL]
CCc1cccc(C)c1NC(C)COC (stereo not drawn) [B],> 1000,< 0.1,
"CCc1cccc(C)c1N(C(=O)CCl)C(C)COC (stereo not drawn) [Metolachlor, 2-chloro-6'-ethyl-N-(2-methoxy-1-methyl-ethyl)acet-O-toluidide]",0.6,100,1.0
CCc1cccc(C)c1N(C(=O)CO)C(C)COC (stereo not drawn) [A],43,1.4,
COCC(=O)N(c1c(C)cccc1C)C(C)C(=O)OC (stereo not drawn) [matalaxyl],,< 0.1,
COCC(=O)N(c1c(C)cccc1C)C(C)C(=O)OC (stereo not drawn) [L],> 1000,,
CCc1cccc(C)c1NC(=O)CCl [C],> 1000,< 0.1,
COC(=O)C(C)N(C(=O)c1ccco1)c1c(C)cccc1C (stereo not drawn) [N],> 1000,,
COC(=O)C(C)N(C(=O)c1ccco1)c1c(C)cccc1C (stereo not drawn) [furalaxyl],,< 0.1,
CCc1cccc(CC)c1N(COC)C(=O)CCl [Alachlor],> 1000,< 0.1,

# Now from value to compound, other results behind:
I50 (inhibitor concentration for 50% inhibition in the competitive ELISA) [1] [ng/mL],Cross-reactivity (metolachlor concentration for 50% inhibition / concentration of metolachlor analogue for 50% inhibition × 100) [1] [%],Compound,I50 [2] [ng/mL]
> 1000,< 0.1,Cc1cccc(C)c1N(C(=O)CO)C(C)C(=O)O (stereo not drawn) [H],
> 1000,< 0.1,Cc1cccc(C)c1NC(C)C(=O)O (stereo not drawn) [K],
> 1000,< 0.1,COC(=O)C(C)Nc1c(C)cccc1C (stereo not drawn) [Compound I],
> 1000,< 0.1,COCC(=O)N(c1c(C)cccc1C)C(C)C(=O)O (stereo not drawn) [G],
> 1000,< 0.1,CCc1cccc(C)c1NC(C)CO (stereo not drawn) [E],
> 1000,< 0.1,CCc1cccc(C)c1NC(=O)CO [D],
> 1000,< 0.1,CCc1cccc(C)c1N(C(=O)CO)C(C)CO (stereo not drawn) [F],
> 1000,< 0.1,COCC(=O)Nc1c(C)cccc1C [J],
> 1000,< 0.1,COCC(=O)N(c1c(C)cccc1CO)C(C)C(=O)OC (stereo not drawn) [M],
